According to patent US20110045100A1, “Antimalarial Quinolines and Methods of Use Thereof” (GEORGETOWN UNIVERSITY, priority 2008, published 2011):

Legend:
[1] = pKa determination by acid/base titration; assay type: physicochemical; conditions: distilled water; measured; read-out: quinolyl N pKa
Experimental: SPARC pKa calculator is an online tool developed at the University of Georgia by S. W. Karickhoff, L. A. Carreira and S. H. Hilal. Experimental pKa were determined using an Accumet AB15 pH meter and a calomel electrode. 10 mM solutions of the drugs (as dibasic salts) were made in distilled H2O and titrated at room temperature (23.0±2.0° C.) using 0.1 M NaOH. Titration plots were generated and pKa's extracted via inflection points from the second derivative plots; (Δ^2pH/ΔV^2) vs. V, where V represents the volume of the titrant added and ΔV is the volume increment.

hemozoin (Hz) formation = experiment: Quantification of in vitro Hz formation inhibition; assay type: biochemical
Experimental: A stock solution of 5 mM hemin (Fluka) in 0.1M NaOH was prepared and stored as small aliquots at -20° C. Fresh aliquots were thawed daily to room temperature before use. Lecithin stock solutions were prepared by dissolving in distilled water to 10 mg/ml and similarly stored. 0.5 M propionate was used to buffer experiments in the pH range 5.2-5.6. The assay mixture (1 mL volumes) contained: 200 μL lecithin solution ([…] final) 20 μL hematin (100 μM final concentration) 20 μ[…] propionate buffer (X) μL drug (dependant on the concentration required 0-1000 μM). The addition sequence involved first adding the lecithin followed by heme, HCl, propionate buffer and finally the drug. Each sample was prepared in triplicate. Following addition of the reagents the samples were incubated at 37° C. with constant shaking for 18 h. After 18 h the assay was stopped by spinning the samples at 13,200 rpm for 10 minutes followed by carefully aspirating off the supernatant. The pellet was then resuspended in 50 mM bicarbonate buffer pH 9.0 (1 mL) and gently shaken at room temperature for 30 minutes to dissolve uncrystallized heme. The samples were then centrifuged as above and the supernatant removed. […] The samples were then dissolved in 0.1M NaOH to solubilize β-hematin to free heme and β-hematin formed was then quantified via heme absorbance at 402 nm. Calibration curves were prepared by titrating increasing amounts of heme in the same solvent vs. absorbance at 402 nm.

μ-oxo dimeric heme = experiment: Heme affinity measurement, μ-oxo dimeric heme; assay type: binding; conditions: aqueous solution
Experimental: 1.5 mL cuvettes containing freshly prepared samples of 4.8 μM heme were titrated with increasing concentrations (0-50 μM) of drug. Following each addition, the sample was mixed and heme absorbance then recorded at 402 nm. Control experiments were performed by titrating 4.8 μM heme with similar volumes of solvent and no drug present. To measure affinity for μ-oxo dimeric heme, the procedure was similar except hemin was first converted to dimeric form in mild alkaline solution, followed by titration to pH 7.5 using Hepes buffer. The absorbance peak analysis was done using Microsoft excel and Ka were extracted from the ΔAbs402 plots via Scatchard analysis using Microsoft Excel and Sigma plot 9.0.1 software.

[2] = system: CQS (HB3, GCO3) and CQR (Dd2, FCB) strains of P. falciparum; experiment: SYBR Green I antiplasmodial assay, several CQS and CQR strains; assay type: cell-based, Plasmodium falciparum; conditions: Plasmodium falciparum; read-out: IC50 vs. CQR parasites
From the text: Bennett T. N.; Paguio, M.; Gligorijevic, B.; Seudieu, C.; Kosar, A. D.; Davidson, E.; Roepe, P. D. Novel, rapid, and inexpensive cell-based quantification of antimalarial drug efficacy. Antimicrob. Agents Chemother. 2004, 48, 1807-1810; Smilkstein, M.; Sriwilaijaroen, N.; Kelly, J. X.; Wilairat, P.; Riscoe, M. Simple and inexpensive fluorescence-based technique for high-throughput antimalarial drug screening. Antimicrob. Agents Chemother. 2004, 48, 1803-1806; and Johnson, J. D.; Dennull, R. A.; Gerena, L.; Lopez-Sanchez, M.; Roncal, N. E.; Waters, N.C. Assessment and continued validation of the malaria SYBR green I-based fluorescence assay for use in malaria drug screening. Antimicrob. Agents Chemother. 2007, 51, 1926-1933. […] Drake, N. L.; Creech, H. J.; Garman, J. A.; Haywood, S. T.; Peck, R. M.; van Hook, J. O.; Walton, E. Synthetic antimalrials. The preparation of certain 4-aminoquinolines. J. Am. Chem. Soc. […] Trans. R. Soc. Trop. Med. Hyg. […] J. Parasitol. 1983, 69, 97-105. The selectivity index provides a quantitative measure of the antimalarial activity against CQR strains relative to that against sensitive strains and thus indicates promising drug discovery leads. […] This can be combined with the introduction of a third basic amino function which should further favor accumulation of the drug within the acidic food vacuole of the parasite.
Bennett T. N.; Paguio, M.; Gligorijevic, B.; Seudieu, C.; Kosar, A. D.; Davidson, E.; Roepe, P. D. Novel, rapid, and inexpensive cell-based quantification of antimalarial drug efficacy. Antimicrob. Agents Chemother. 2004, 48, 1807-1810; Smilkstein, M.; Sriwilaijaroen, N.; Kelly, J. X.; Wilairat, P.; Riscoe, M. Simple and inexpensive fluorescence-based technique for high-throughput antimalarial drug screening. Antimicrob. Agents Chemother. 2004, 48, 1803-1806; and Johnson, J. D.; Dennull, R. A.; Gerena, L.; Lopez-Sanchez, M.; Roncal, N. E.; Waters, N.C. Assessment and continued validation of the malaria SYBR green I-based fluorescence assay for use in malaria drug screening. Antimicrob. Agents Chemother. 2007, 51, 1926-1933.
Drug activities were assessed and IC50 were quantified essentially as described previously. Delarue, S.; Girault, S.; Maes, L.; Debreu-Fontaine, M. A.; Labaeid, M.; Grellier, P.; Sergheraert, C. Synthesis and in vitro and in vivo antimalarial activity of new 4-anilinoquinolines. J. Med. Chem. 2001, 44, 2827-2833; and O'Neill, P. M.; Willock, D. J.; Hawley, S. R.; Bray, P. G.; Storr, R. C.; Ward, S. A.; Park, B. K. Synthesis, antimalarial activity, and molecular modeling of tebuquine analogues. J. Med. Chem. 1997, 40, 437-448.

pKa [1]: 4.5
fold higher IC50 for Hz inhibition relative to 98 (hemozoin (Hz) formation): roughly 5 fold
IC50 [2]: ~1000 nM
Structure (SMILES): CCN(CC)CCCCOc1ccnc2cc(Cl)ccc12 [compound 93, O-(7-Chloro-4-quinolyl)-4-(N,N-diethylamino)butanol]
ability to inhibit Hz formation vs. that measured for CQ and 8 (hemozoin (Hz) formation; FIG. 26): significantly lower
affinity (association constant Ka) vs. μ-oxo dimer (μ-oxo dimeric heme): quite similar
